Tests used:
Mus musculus [1] = test: Effective dose required to protect mice against convulsion induced by a lethal dose of PTZ (100 mg/kg) was determined; type: functional
Mus musculus [2] = test: Effective dose required to protect mice against convulsion induced electroshock was determined by MES test in the presence of 10 mg/kg flumazenil
[3] = Lethal dose in mice; type: toxicity; conditions: mouse, in vivo
Mus musculus [4] = species on record: Mus musculus; test: Effective dose required to protect mice against convulsion induced electroshock was determined by MES test; type: functional
Mus musculus [5] = test: Effective dose required to protect mice against convulsion induced by a lethal dose of PTZ (100 mg/kg) was determined in the presence of 10 mg/kg flumazenil; type: functional

| SMILES | ED50 (Mus musculus [1]) [mg/kg] | ED50 (Mus musculus [2]) [mg/kg] | LD50 [3] [mg/kg] | ED50 (Mus musculus [4]) [mg/kg] | ED50 (Mus musculus [5]) [mg/kg] |
| --- | --- | --- | --- | --- | --- |
| CN1C(=O)CN=C(c2ccccc2)c2cc(Cl)ccc21 [DIAZEPAM] | 1.87 | 1.57 | – | – | – |
| Fc1ccccc1Oc1ccccc1-c1nnc(S)o1 | > 100 | – | > 300 | 43.1 | – |
| CCOc1n[nH]c(-c2ccccc2Oc2ccccc2F)n1 | 84.8 | – | > 300 | – | – |
| Nc1nnc(-c2ccccc2Oc2ccccc2F)o1 | – | – | > 300 | 9.57 | 39.2 |
| Fc1ccccc1Oc1ccccc1-c1n[nH]c(S)n1 | > 100 | – | > 300 | 92 | – |
| CSc1nnc(-c2ccccc2Oc2ccccc2F)o1 | – | – | > 300 | > 100 | – |
| Oc1nnc(-c2ccccc2Oc2ccccc2F)o1 | – | – | > 300 | > 100 | – |
